Measured values as given in patent US8008007B2, “S-adenosyl-L-methionine analogs with extended activated groups for transfer by methyltransferases” (RWTH Aachen, priority 2005, dated 2011).

Tests used:
M.BcnIB [1] = assay: Modification of cytosine-N4 in duplex oligodeoxynucleotide V.VI by M.BcnIB, nucleoside analysis by HPLC/ESI-MS; format: biochemical; conditions: duplex V.VI 12.5 μM, cofactor 300 μM, enzyme 15 μM, 37° C. over night
Excerpt: Transfer of the activated ethyl (CH2CH3), propyl (CH2CH2CH3), prop-2-enyl (CH2CHCH2), prop-2-ynyl group (CH2CCH), but-2-ynyl (CH2CCCH3), pent-2-ynyl (CH2CCCH2CH3) or benzyl group (CH2C6H5) from cofactors 3-9 by the DNA adenine-N6 methyltransferase M.TaqI, the DNA cytosine-C5 methyltransferase M.HhaI variant Q82A or the DNA cytosine-N4 methyltransferase M.BcnIB to DNA was first investigated using short duplex oligodeoxynucleotides as substrates. After enzymatic transfer the duplex oligodeoxynucleotides were enzymatically fragmented and the resulting modified nucleosides were analyzed by reversed-phase HPLC coupled with ESI-MS.
The duplex oligodeoxynucleotide V.VI was produced by mixing equal molar amounts (2.5 nmol) of complementary single-stranded oligodeoxynucleotide V (5′-[…]-3′) (SEQ ID NO. 3) and VI (5′-[…]-3′) (SEQ ID NO. 4) in water, heating at 85° C. for 5 min and slow cooling to room temperature. […] M.BcnIB was denatured by heating to 80° C. for 10 min and incubated with proteinase K at 55° C. 1 h. Hydrolysis products were removed using gel filtration column (G-25 column, Amersham Biosciences).
The obtained solutions of duplex oligodeoxynucleotides were treated with buffer ( 1/10 volume, 100 mM Tris-HCl, 100 mM magnesium chloride, 10 mM zinc acetate, pH 7.5) containing Nuclease P1 (1500 u, Sigma) and calf intestine alkaline phosphatase (30 u, MBI Fermentas) and incubated at 37° C. for 4 h. Nucleosides were analyzed by reversed-phase HPLC (Discovery C18 150×2.1 mm, 5 μm, equipped with a Supelguard Discovery C18 20×2.1 mm, 5 μm, pre-column, Supelco, Germany) coupled with a mass spectrometric detector (HP 1100 series ESI-MS equipped with single quadruple). Compounds were eluted with methanol (0% for 6 min, followed by linear gradients to 56% in 15 min and to 80% in 1 min) in ammonium formate buffer (20 mM, pH 4.25 for cofactors 3, 4, 6 and pH 3.5 for cofactor 5) at a flow of 0.3 mL/min and detected at 280 nm. For on-line mass spectrometric detection post-column mobile phase modification (equal co-flow of 96% methanol, 4% formic acid and 1 mM sodium hydroxide) was used to enhance the detection efficiency of 2′-deoxycytidine and its derivatives. Mass spectra were recorded in 50-600 m/z range.

M.BcnIB [2] = assay: DNA protection assay with M.BcnIB (wild-type) on phage lambda DNA; format: biochemical; conditions: 1.10 μg phage lambda DNA, cofactor 300 μM, 37° C. for 4 h, then R.BcnI; pH 7.4 (pH 6.0 for cofactor 6)
Excerpt: (§1) Transfer kinetics of the activated ethyl (—CH2CH3), propyl (—CH2CH2CH3), prop-2-enyl (—CH2CH═CH2), prop-2-ynyl (—CH2C≡CH), but-2-ynyl (—CH2C≡CCH3), pent-2-ynyl (—CH2C≡CCH2CH3) and benzyl group (—CH2C6H5) from cofactors 3-9 by the DNA adenine-N6 methyltransferase M.TaqI and its variant V21 G, the DNA cytosine-C5 methyltransferase M.HhaI and its variant Q82A, the DNA cytosine-N4 methyltransferase M.BcnIB and the DNA cytosine-C5 methyltransferase M.SssI variant Q142A to phage lambda DNA (48502 base pairs) were investigated using a DNA protection assay. This assay makes use of the fact that DNA methyltransferase-catalyzed modifications of nucleobases within the recognition sequences of restriction endonucleases can protect the DNA against fragmentation by these enzymes. […] Unmodified DNA containing 5′-TCGA-3′ recognition sequences is readily fragmentated by R.TaqI. After DNA modification by M.TaqI in the presence of a cofactor with an activated group Z—R modified 5′-TCGA^Z—R-3′ sequences are formed and, as a result, R.TaqI is unable to fragment the modified DNA. Occurrence of fragmentation is then analyzed by agarose gel electrophoresis.
By varying the amounts of DNA methyltransferase, this assay is used to investigate the enzymatic activities of the different DNA methyltransferases with cofactors 3-9 and compare them to the enzymatic activities with the natural cofactor 1. The minimal amount of DNA methyltransferase needed to fully protect 1 μg of phage lambda DNA against restriction endonuclease fragmentation under the given experimental conditions is defined as one enzyme unit (u).
Afterwards the reactions were stopped by heating to 80° C. for 10 min. A solution (10 μL) containing R.BcnI restriction endonuclease (12 u, MBI Fermentas), bovine serum albumin (0.1 mg/mL) and buffer (33 mM Tris acetate, 66 mM potassium acetate, 26.5 mM magnesium chloride, pH 7.9) was added to each dilution and incubation at 37° C. was continued for 1 h. […] Parallel control experiments were performed with phage lambda DNA in the absence of M.BcnIB and in the presence of M.BcnIB (144 ng).

M.SssI-Q142A = biological target: T1, M.SssI-Q142A (Spiroplasma monobiae, UniProt P15840, Q142A); assay: DNA protection assay with M.SssI variant Q142A on phage lambda DNA; format: biochemical; conditions: 1 μg phage lambda DNA, cofactor 300 μM, 37° C. for 4 h, then R.BstUI
T1 construct: made in house
Excerpt: as §1
By varying the amounts of DNA methyltransferase, this assay is used to investigate the enzymatic activities of the different DNA methyltransferases with cofactors 3-9 and compare them to the enzymatic activities with the natural cofactor 1. […]
Two fold serial dilutions (20 μL) of M.SssI-Q142A (starting with 3300 ng, 73 pmol) in buffer (10 mM Tris hydrochloride, 50 mM sodium chloride, 1 mM dithiothreitol, pH 7.9), phage lambda DNA (1 μg, 31.3 fmol, 3113 5′-CG-3′ recognition sequences, […] recognition sequences, MBI Fermentas) and the natural cofactor 1 (300 μM) or cofactor analogs 5 and 7 (300 μM) were incubated at 37° C. for 4 h. […] Loading buffer (10 μL, 0.25% bromphenol blue, 30% glycerol) was added to each sample, and aliquots (15 μL) were analyzed for the degree of protection by agarose gel (1%) electrophoresis.

pBR322 plasmid DNA = conditions: modification with M.TaqI or M.HhaI-Q82A/N304A, cofactor 300 μM, 4 h
M.HhaI-Q82A/N304A = biological target: T2, M.HhaI-Q82A/N304A (Haemophilus parahaemolyticus, UniProt P05102, N304A/Q82A); assay: DNA protection assay with M.HhaI variant Q82A/N304A on phage lambda DNA; format: biochemical; conditions: 1.16 μg phage lambda DNA, cofactor 300 μM, 37° C. for 1 h, enzyme from 1100 ng
T2 construct: made in house
Procedure: Afterwards, the reactions were stopped by heating to 80° C. for 10 min. […] Parallel control experiments were performed with phage lambda DNA in the absence of M.HhaI-Q82A/N304A and in the presence of M.HhaI-Q82A/N304A (1100 ng).

T1 sequence (P15840 whole entry Q142A): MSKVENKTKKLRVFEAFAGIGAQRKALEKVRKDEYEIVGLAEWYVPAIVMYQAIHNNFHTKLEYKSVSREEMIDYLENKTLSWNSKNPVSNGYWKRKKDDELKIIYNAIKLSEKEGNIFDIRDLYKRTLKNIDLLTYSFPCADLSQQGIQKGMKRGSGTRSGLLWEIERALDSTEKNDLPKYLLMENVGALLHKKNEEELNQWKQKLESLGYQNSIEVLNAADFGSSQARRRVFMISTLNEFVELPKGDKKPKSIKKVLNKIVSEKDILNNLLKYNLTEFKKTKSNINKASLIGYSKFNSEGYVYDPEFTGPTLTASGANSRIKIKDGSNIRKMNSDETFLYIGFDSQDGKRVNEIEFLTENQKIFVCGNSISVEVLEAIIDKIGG
T2 sequence (P05102 whole entry Q82A/N304A): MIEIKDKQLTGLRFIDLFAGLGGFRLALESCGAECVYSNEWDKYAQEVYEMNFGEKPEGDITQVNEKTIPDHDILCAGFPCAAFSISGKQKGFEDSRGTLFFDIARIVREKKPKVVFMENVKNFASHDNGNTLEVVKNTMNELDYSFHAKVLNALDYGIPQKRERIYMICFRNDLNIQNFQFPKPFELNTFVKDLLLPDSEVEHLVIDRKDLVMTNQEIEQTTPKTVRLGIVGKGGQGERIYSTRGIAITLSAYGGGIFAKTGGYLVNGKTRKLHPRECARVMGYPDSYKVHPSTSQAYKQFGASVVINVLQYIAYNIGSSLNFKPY

Row | SMILES | cofactor function for M.BcnIB (transfer of group Z-R to cytosine-N4) (M.BcnIB [1]) | specific activity of M.BcnIB with the cofactor (M.BcnIB [2]) [u/μg] | also measured
1 | CC[S+](CCC(N)C(=O)O)CC1OC(n2cnc3c(N)ncnc32)C(O)C1O (centres unmarked) [Cofactor 3] | functions as a cofactor | – | –
2 | C#CC[S+](CCC(N)C(=O)O)CC1OC(n2cnc3c(N)ncnc32)C(O)C1O (centres unmarked) [Cofactor 6] | does not function as a cofactor | 0 | –
3 | C=CC[S+](CCC(N)C(=O)O)CC1OC(n2cnc3c(N)ncnc32)C(O)C1O (centres unmarked) [Cofactor 5] | functions as a cofactor | – | specific activity of M.SssI-Q142A with the cofactor (M.SssI-Q142A): 1.2 u/μg
4 | CCC[S+](CCC(N)C(=O)O)CC1OC(n2cnc3c(N)ncnc32)C(O)C1O (centres unmarked) [Cofactor 4] | does not function as a cofactor | – | –
5 | NCCCC(=O)NCC#CC[S+](CCC(N)C(=O)O)CC1OC(n2cnc3c(N)ncnc32)C(O)C1O (centres unmarked) [Cofactor 10] | – | – | two-step labeling of amino-modified pBR322 DNA with fluorescein N-hydroxysuccinimidyl ester (pBR322 plasmid DNA): labeling is sequence-specific; protection of phage lambda DNA against R.Hin6I fragmentation (M.HhaI-Q82A/N304A): almost protected phage lambda DNA
6 | CC#CC[S+](CCC(N)C(=O)O)CC1OC(n2cnc3c(N)ncnc32)C(O)C1O (mixture of isomers) [Cofactor 7] | – | 28 | specific activity of M.SssI-Q142A with the cofactor (M.SssI-Q142A): 0.6 u/μg
7 | CCC#CC[S+](CCC(N)C(=O)O)CC1OC(n2cnc3c(N)ncnc32)C(O)C1O (centres unmarked) [Cofactor 8] | – | 14 | –
